Assay [1] addresses T1, recombinant human acid α-glucosidase (rhGAA) (Homo sapiens (Human), UniProt P10253). The assay can be described thus: Inhibition of rhGAA determined by Fluopol-ABPP. Format: binding. Conditions: McIlvaine buffer pH 5.0, 37° C., TAMRA probe. The source says: The inhibiting activity on recombinant human acid α-glucosidase (rhGAA) of the compounds is implemented using the Fluopol-ABPP method (Fluorescence Polarization Activity Based Protein Profiling) described in the publication of Lahav et al., 2017, J. Am. Chem. Soc. 139: 14192-14197. This technique, based on the competition between an inhibitor and a fluorescent probe capable of binding covalently to the active site of an enzyme, makes it possible to measure the affinity of this inhibitor for the active site of the rhGAA enzyme used for these experiments by the laboratory of Professors Herman S. Overkleeft and Johanes M. F. G. Aerts, Leiden Institute of Chemistry, Leiden University (NL), is the enzyme marketed under the name Myozyme®. […] The […] (TAMRA) fluorescent probe in solution (25 nM) in the buffer is next added to the mixture. After 4 hours, the samples are irradiated with a polarized light (λ=530 nm) and the fluorescence emitted (λ=580 nm) is measured by means of an Infinite® M1000Pro (Tecan) spectrofluorimeter. For each concentration of inhibitor, the percentage of inhibition of the enzyme is determined by the formula:
%Inhibition=[Fmeasured−Fcontrol1)/Fcontro2)×100
The IC50 values are calculated by a non-linear regression of the % inhibition as a function of the concentration [I] by means of the GraphPad Prism 6.0 software. The results are a mean of three identical experiments (triplicates).

Assay [2] addresses T1, recombinant human acid α-glucosidase (rhGAA). The assay can be described thus: Inhibition of rhGAA determined by measuring the residual activity in vitro. The assay is classed as biochemical. Conditions: sodium acetate buffer pH 4.0, 37° C.; for IC50: 4-nitrophenyl-α-D-glucopyranoside substrate.
The target of assay [3] is human non-lysosomal β-glucosylceramidase (GBA2) (Homo sapiens (Human), UniProt Q9HCG7). Description: Inhibition of GBA2 in lysates of HEK298T cells over-expressing GBA2. The assay is classed as biochemical. Conditions: pH 5.8, 4-methyl-umbelliferone-β-D-glucopyranoside 3.0 mM, 1 hour. The method, then: (§1) The selectivity of the compounds was evaluated in the laboratory of Professors Herman S. Overkleeft and Johanes M. F. G. Aerts, Leiden Institute of Chemistry, Leiden University (NL). The enzymes used for determining the selectivity of inhibition of the compounds with respect to various human enzymes are the α-glucosidase II of the endoplasmic reticulum (GANAB), recombinant human lysosomal β-glucocerebrosidase (GBA1), human non-lysosomal β-glucosylceramidase (GBA2) and β-glucosylceramide synthase (GCS). The inhibiting activity of the compounds on these various enzymes is determined as described in the publication by Artola et al., 2017, ACS Cent. Sci. 3: 784-793. The enzyme GBA1 sold under the name Cerezyme® and the enzyme rhGAA sold under the name Myozyme® are used. The human GANAB enzyme used for this study is that of fibroblasts of patients suffering from Pompe disease diagnosed as lacking active GAA and voluntary donors. These fibroblasts were cultivated on an HAMF12-DMEM medium (Sigma) supplemented by 10% (v/v) FCS (fetal calf serum). The GBA2 enzyme was over-expressed in HEK298T cells cultivated on a DMEM medium enriched with glucose (Gibco) supplemented by 10% NBS (newborn bovine serum) and 100 units/mL of penicillin/streptomycin (Gibco) and 5% CO2 at 37° C. The activity of the compounds on human β-glucosylceramide synthase (GCS) is evaluated in situ on cells of the RAW 264.7 type cultivated on an RPMI medium (Gibco) supplemented by 10% FCS, 1 mM of glutamax, 100 units/mL of penicillin/streptomycin (Gibco) and 5% CO2 at 37° C.
(§2) These cell lysates are homogenized using a SilentCrusher grinder (Heidolph®), and then subjected to ultracentrifugation at 32,000 rpm for 30 minutes at 4° C. The total protein concentration is determined in accordance with the Bradford method (Bradford, 1976, Anal. Biochem. 72: 248-254), using a Bradford BioRad Quick Start® kit (Pierce) and BSA (Sigma). The lysates are next aliquoted and stored at −80° C. before use.
The residual activity of GBA2 in the presence of the compounds is determined after pre-incubation for 30 minutes of the homogenates of HEK298T cells over-expressing GBA2 with an inhibitor of GBA1, conduritol β-epoxide (Sigma), at a concentration of 1 mM.

Assay [4] concerns the target T2, α-glucosidase II of the endoplasmic reticulum (GANAB) (Homo sapiens (Human), UniProt Q14697). The assay can be described thus: Inhibition of GANAB in lysates of fibroblasts of Pompe patients. Format: biochemical. Particulars: pH 7.0, 4-methyl-umbelliferone-α-D-glucopyranoside 2.4 mM, 2 hours. On the procedure:
as §1, §2

Assay [5] addresses T3, rhGAA (Homo sapiens (Human), UniProt P10253). Description: Thermal stabilization of rhGAA by DSF (differential scanning fluorimetry). The assay is classed as binding. On the procedure: The stabilization of rhGAA in the presence of the compounds is determined in accordance with the method described in the publication of Niesen et al., 2007, Nat. Protoc. 2: 2212-2221. The rhGAA enzyme (2.5 μg, 0.1 mg/mL) is incubated in the absence and in the presence of each compound (at a concentration [I]=100 μM), of SYPRO® orange dye (Life Technologies), and of sodium phosphate buffer (25 mM) and of NaCI (150 mM), pH 7.4 or of sodium acetate buffer (25 mmol) and of NaCl (150 mM), pH 4.0. The thermal stability of the enzyme in these various conditions is evaluated by DSF (differential scanning fluorimetry) by varying the temperature by 1° C./min over an interval of 25 to 95° C., and measuring the fluorescence of the SYPRO® orange dye every minute by means of a Real-Time Cycler spectrofluorimeter (Biorad). The relative fluorescence is determined by comparing each fluorescence value measured with that of the maximum fluorescence value of the SYPRO® orange dye for each scan. The results are a mean of three identical experiments (triplicates).

Assay [6] has as its target β-glucosylceramide synthase (GCS) (Mus musculus (Mouse), UniProt O88693). Description: Inhibition of GCS in situ in RAW 264.7 cells. Format: cell-based. Conditions: pH 7.0, 1 μM NBD-ceramide. The method, then: as §1, §2
The residual activity of GCS in the presence of the compounds is determined after pre-incubation for 1 hour of the homogenates of RAW 264.7 cells with an inhibitor of GBA1, conduritol β-epoxide (Sigma), at a concentration of 300 μM.
The I50 values for the GCS enzyme are determined in situ in the cell culture medium at pH 7.0 using 1 μM of NBD-ceramide (N-[12-[(7-nitro-2-1,3-benzoxadiazol-4-yl)amino]dodecanoyl]-D-erythro-sphingosine) as substrate, as described in the aforementioned publication of Lahav et al.

For assay [7], the target named is recombinant human lysosomal β-glucocerebrosidase (GBA1) (Homo sapiens (Human), UniProt P04062, R534H). The assay can be described thus: Inhibition of GBA1 (Cerezyme). Format: biochemical. Conditions: pH 5.2, 4-methyl-umbelliferone-β-D-glucopyranoside 3.0 mM, 30 minutes. The method, then:
as §1

The target of assay [8] is T2, α-glucosidase II of the endoplasmic reticulum (GANAB). Conditions: literature value; cited from earlier work.
In assay [9] the target is T3, rhGAA. Conditions: literature value, cited from earlier work; for rhGAA ΔTm: pH 4.3, measured at [compound]=10 times the value of Ki.
[10] abbreviates: [I]=100 μM, pH 4.0, read-out: rhGAA ΔTm at pH 4.0.
Setting [11] is: [I]=100 μM, pH 7.4, read-out: rhGAA ΔTm at pH 7.4.

The structures appear in SMILES notation. Read-outs that look alike come from different tables or passages of the source.

Chain of recombinant human lysosomal β-glucocerebrosidase (GBA1) (P04062 40-536 R534H limits assumed): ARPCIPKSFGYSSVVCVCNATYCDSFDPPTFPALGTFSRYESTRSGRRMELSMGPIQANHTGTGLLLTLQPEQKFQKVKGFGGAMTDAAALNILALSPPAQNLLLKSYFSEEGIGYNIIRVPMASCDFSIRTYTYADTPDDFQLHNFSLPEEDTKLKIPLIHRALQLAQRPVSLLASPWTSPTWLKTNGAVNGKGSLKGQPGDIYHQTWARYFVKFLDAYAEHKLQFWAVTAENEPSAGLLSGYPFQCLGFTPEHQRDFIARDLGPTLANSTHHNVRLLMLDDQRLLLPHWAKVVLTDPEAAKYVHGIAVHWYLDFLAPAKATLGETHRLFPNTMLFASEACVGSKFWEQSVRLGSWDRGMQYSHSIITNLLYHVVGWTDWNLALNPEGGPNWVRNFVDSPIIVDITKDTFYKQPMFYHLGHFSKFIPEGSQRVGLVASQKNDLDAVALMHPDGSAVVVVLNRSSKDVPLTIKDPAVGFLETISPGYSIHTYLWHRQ
Chain of β-glucosylceramide synthase (GCS) (O88693 whole entry): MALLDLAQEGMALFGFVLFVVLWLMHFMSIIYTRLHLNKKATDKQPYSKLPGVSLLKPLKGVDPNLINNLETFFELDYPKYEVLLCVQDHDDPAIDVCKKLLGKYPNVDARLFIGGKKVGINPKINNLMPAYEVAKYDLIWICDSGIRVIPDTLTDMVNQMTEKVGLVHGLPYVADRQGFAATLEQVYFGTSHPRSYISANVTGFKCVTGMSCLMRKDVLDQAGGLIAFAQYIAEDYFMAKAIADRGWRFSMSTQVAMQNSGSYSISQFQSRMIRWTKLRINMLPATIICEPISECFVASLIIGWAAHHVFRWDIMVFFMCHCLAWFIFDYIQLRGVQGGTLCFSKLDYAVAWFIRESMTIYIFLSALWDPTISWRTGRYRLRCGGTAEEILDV
Chain of human non-lysosomal β-glucosylceramidase (GBA2) (Q9HCG7 whole entry): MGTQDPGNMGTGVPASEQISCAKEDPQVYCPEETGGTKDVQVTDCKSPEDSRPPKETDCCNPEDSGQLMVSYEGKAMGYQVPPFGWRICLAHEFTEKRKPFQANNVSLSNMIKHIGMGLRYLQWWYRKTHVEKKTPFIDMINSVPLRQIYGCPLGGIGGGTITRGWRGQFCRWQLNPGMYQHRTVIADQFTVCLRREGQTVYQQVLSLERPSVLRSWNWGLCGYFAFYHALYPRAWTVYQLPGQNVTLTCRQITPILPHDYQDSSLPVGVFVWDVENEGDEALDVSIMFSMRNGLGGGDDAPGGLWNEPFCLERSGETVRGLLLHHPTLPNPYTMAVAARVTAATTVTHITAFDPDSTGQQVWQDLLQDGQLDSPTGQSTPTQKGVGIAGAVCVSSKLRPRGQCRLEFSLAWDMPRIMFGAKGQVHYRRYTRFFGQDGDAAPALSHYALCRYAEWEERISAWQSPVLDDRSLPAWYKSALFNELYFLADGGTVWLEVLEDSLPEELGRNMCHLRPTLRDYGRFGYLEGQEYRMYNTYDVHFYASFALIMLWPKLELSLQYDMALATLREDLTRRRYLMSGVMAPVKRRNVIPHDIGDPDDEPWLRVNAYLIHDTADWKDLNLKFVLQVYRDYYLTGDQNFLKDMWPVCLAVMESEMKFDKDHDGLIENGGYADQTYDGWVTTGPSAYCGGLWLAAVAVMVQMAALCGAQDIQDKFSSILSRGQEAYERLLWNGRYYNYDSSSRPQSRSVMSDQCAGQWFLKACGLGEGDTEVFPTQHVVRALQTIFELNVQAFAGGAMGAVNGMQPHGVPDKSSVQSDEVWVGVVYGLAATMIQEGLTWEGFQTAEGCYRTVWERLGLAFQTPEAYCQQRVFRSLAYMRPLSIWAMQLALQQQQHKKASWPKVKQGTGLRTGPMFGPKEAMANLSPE
T2 sequence (Q14697 29-944): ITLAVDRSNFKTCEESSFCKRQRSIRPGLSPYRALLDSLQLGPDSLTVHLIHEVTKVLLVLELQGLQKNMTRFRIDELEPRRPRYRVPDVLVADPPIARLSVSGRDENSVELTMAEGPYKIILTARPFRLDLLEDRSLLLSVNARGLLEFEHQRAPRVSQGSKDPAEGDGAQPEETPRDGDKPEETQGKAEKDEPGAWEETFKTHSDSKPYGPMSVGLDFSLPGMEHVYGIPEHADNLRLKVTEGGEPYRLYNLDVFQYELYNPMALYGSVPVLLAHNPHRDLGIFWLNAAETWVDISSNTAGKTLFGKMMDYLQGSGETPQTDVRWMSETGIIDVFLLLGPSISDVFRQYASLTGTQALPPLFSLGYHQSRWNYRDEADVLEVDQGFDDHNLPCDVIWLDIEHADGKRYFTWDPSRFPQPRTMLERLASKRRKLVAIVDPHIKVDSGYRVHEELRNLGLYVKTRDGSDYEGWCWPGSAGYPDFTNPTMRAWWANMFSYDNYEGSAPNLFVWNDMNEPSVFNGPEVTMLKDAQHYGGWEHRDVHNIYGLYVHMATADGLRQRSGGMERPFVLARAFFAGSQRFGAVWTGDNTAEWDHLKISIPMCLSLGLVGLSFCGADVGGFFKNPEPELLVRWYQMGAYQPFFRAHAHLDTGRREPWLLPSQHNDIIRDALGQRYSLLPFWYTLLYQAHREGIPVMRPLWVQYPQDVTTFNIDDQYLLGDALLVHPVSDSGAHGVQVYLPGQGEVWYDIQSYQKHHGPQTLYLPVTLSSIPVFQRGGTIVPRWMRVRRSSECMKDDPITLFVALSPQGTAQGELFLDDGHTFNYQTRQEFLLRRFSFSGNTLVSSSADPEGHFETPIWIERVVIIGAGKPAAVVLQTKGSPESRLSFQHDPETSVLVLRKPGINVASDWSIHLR
T2 sequence (P14314 15-528 partner): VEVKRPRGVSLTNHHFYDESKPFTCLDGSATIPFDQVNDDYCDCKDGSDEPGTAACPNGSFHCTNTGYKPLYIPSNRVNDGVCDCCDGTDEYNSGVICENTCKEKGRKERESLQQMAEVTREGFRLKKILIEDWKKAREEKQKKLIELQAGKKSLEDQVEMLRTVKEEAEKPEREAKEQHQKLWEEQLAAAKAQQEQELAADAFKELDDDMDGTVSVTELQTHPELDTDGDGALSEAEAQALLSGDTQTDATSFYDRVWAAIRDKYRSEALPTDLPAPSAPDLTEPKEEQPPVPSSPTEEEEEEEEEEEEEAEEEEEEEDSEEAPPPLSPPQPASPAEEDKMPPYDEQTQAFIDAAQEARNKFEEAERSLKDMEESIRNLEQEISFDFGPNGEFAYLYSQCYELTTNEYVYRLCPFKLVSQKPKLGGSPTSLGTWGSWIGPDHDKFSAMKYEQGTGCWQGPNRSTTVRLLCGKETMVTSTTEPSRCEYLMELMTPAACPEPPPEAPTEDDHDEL

`CCC[C@]1(CO)NC[C@H](O)[C@@H](O)[C@@H]1O` [(IIb), (2R,3R,4R,5S)-2-(hydroxymethyl)-2-propylpiperidine-3,4,5-triol]: the IC50 in assay [1] is 0.39 µM; in [2], 104 µM; in assay [3], over 1000 µM; in assay [4], over 100 µM; in [6], over 50 µM; in [7], over 1000 µM. In assay [2], the Ki was determined as 13 µM. In addition, the ΔTm at 100 µM came to 7.8 °C in assay [5] (setting [10]) and 11.5 °C in assay [5] (setting [11]).

In the case of `OC[C@@]12CCCN1C[C@H](O)[C@@H](O)[C@@H]2O` [(IIg), (6S, 7R, 8R, 8aR)-8a-(hydroxymethyl)-octahydroindolizine-6,7,8-triol], the IC50 in assay [1] was 0.46 µM; in assay [2] it was 387 µM; in assay [3] it was over 1000 µM; in [4] it was over 100 µM; in assay [6] it was over 50 µM; in assay [7], over 1000 µM. Also, the ΔTm at 100 µM in assay [5] (read-out: rhGAA ΔTm at pH 4.0) worked out at 6.7 °C; in [5] (read-out: rhGAA ΔTm at pH 7.4) it was 14.4 °C.

On to `OCC[C@]1(CO)NC[C@H](O)[C@@H](O)[C@@H]1O` [(IId), (2R,3R,4R,5S)-2-(2-hydroxyethyl)-2-(hydroxymethyl)piperidine-3,4,5-triol], for which the IC50 was 0.15 µM in assay [1]; 182 µM in assay [2]; over 1000 µM in assay [3]; over 100 µM in assay [4]; over 50 µM in assay [6]; over 1000 µM in assay [7]. In addition, the Ki in [2] is 18.9 µM. Moreover, the ΔTm at 100 µM in [5] (setting [10]) came to 9.4 °C; in assay [5] (setting [11]), 10.7 °C.

Turning to `OC[C@@]1(CCc2ccccc2)NC[C@H](O)[C@@H](O)[C@@H]1O` [(IIc), (2R,3R,4R,5S)-2-(hydroxymethyl)-2-phenethylpiperidine-3,4,5-triol], the IC50 in assay [1] was 0.22 µM; in assay [2], 37.2 µM; in assay [3], over 1000 µM; in [4], over 100 µM; in assay [6], over 50 µM; in [7], over 1000 µM. The Ki in assay [2] came out at 7.6 µM. For the same compound, the ΔTm at 100 µM was determined as 11.8 °C in assay [5] (setting [10]) and 13 °C in [5] (setting [11]).

For the compound `CCCCN1C[C@H](O)[C@@H](O)[C@H](O)[C@H]1CO` [NB-DNJ], the IC50 in [8] is 15 µM. In addition, in assay [9], the “rhGAA ΔTm” value was 6.2 (pH 4.3)*^b ° C and the “rhGAA ΔTm at pH 7.4” value is on record as 12^d^ ° C.

As to `CC[C@]1(CO)NC[C@H](O)[C@@H](O)[C@@H]1O` [(IIa), (2R,3R,4R,5S)-2-ethyl-2-(hydroxymethyl)piperidine-3,4,5-triol], the IC50 was 0.42 µM in assay [1]; 341 µM in assay [2]; over 1000 µM in assay [3]; over 100 µM in [4]; over 50 µM in assay [6]; over 1000 µM in assay [7]. Further, the ΔTm at 100 µM in assay [5] (setting [10]) is 8.1 °C; in assay [5] (setting [11]), 12.7 °C.

As to `OC[C@H]1NC[C@H](O)[C@@H](O)[C@@H]1O` [DNJ, deoxynojirimycin], in assay [9], the “rhGAA ΔTm” value is 2.7 (pH 4.3)*^b ° C and the “rhGAA ΔTm at pH 7.4” value is on record as 15^c^ ° C.

As to `OC[C@@]12CCCCN1C[C@H](O)[C@@H](O)[C@@H]2O` [(IIf), (1R,2R,3S,9aR)-9a-(hydroxymethyl)octahydro-1H-quinolizine-1,2,3-triol], the IC50 in assay [1] is 0.87 µM; in [2] it was 297 µM; in assay [3] it was over 1000 µM; in assay [4], over 100 µM; in assay [6], over 50 µM; in [7], over 1000 µM. For the same compound, the shift in melting temperature (ΔTm) at 100 µM in assay [5] (setting [10]) was 6.4 °C; in assay [5] (setting [11]), 11.8 °C.

These data come from patent publication US20230339856A1, “NOVEL PHARMACOLOGICAL CHAPERONE COMPOUNDS OF HUMAN ACID ALPHA-GLUCOSIDASE AND THE THERAPEUTIC USE THEREOF” (UNIVERSITÉ GRENOBLE ALPES, priority 2020, published 2023).
